According to US10392383B2, “3-(1H-benzo[d]imidazol-2-yl)-1H-pyrazolo[4,3-b]pyridines and therapeutic uses thereof” (Samumed, LLC, priority 2015, dated 2019):

Legend:
SW480 colon cancer cells = assay: Cell viability assay (CellTiter-Blue) in SW480 cells; format: cell-based; conditions: Homo sapiens, 96 h, four days; for EC50: CellTiter-Blue, 10 μM to 0.0045 μM
Method in brief: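 SW480 colon cancer cells (~2×10^3/well) exposed to 8-point 1:3 dilutions from 10 μM to 0.0045 μM for four days at 37 °C/5% CO2. Viability read by resazurin (CellTiter-Blue) fluorescence after ~3 h, Ex 560/Em 590 nm. EC50 from non-linear regression; percent inhibition at 10 μM given when EC50 >10 μM.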

[1] = tested on: primary human fibroblasts derived from IPF patients (LL29 cells) treated with TGF-β1; assay: Inhibition of the fibrotic process: αSMA staining in TGF-β1-treated LL29 fibroblasts; format: cell-based; conditions: Fibroblast; for EC50: 96 h, LL29 fibroblasts treated with TGF-β1 (20 ng/mL), 4 days, Table 4; for inhibition at 10 µM: LL29 fibroblasts treated with TGF-β1, Table 4, read-out: percent inhibition at 10 μM (given in parentheses for EC50 >10 μM)
Method in brief: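 IPF-derived LL29 fibroblasts in F12 with 1% FBS dosed with compound (11-point, 10 μM to 1.87 nM, 0.1% DMSO), then 20 ng/mL TGF-β1 after 1 h, and cultured 4 days at 37 °C. αSMA-positive cell fraction imaged after excluding SYTOX-positive cells, normalized to TGF-β1/DMSO wells; EC50 by non-linear regression, % inhibition at 10 μM if EC50 >10 μM.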

Row | SMILES | EC50 (SW480 colon cancer cells) [nM] | EC50 [1] [nM] | inhibition at 10 µM [1] [%] | inhibition at 10 µM (SW480 colon cancer cells; 10 μM, read-out: percent inhibition at 10 μM (given for EC50 of >10 μM)) [%]
1 | FC1(F)CCN(Cc2cncc(-c3ccc4[nH]nc(-c5nc6c(-c7ccsc7)cccc6[nH]5)c4n3)c2)C1 [Compound 306, 5-(5-((3,3-Difluoropyrrolidin-1-yl)methyl)pyridin-3-yl)-3-(4-(thiophen-3-yl)-1H-benzo[d]imidazol-2-yl)-1H-pyrazolo[4,3-b]pyridine] | 4790 | 1230 | – | –
2 | CCCC(=O)Nc1cncc(-c2ccc3[nH]nc(-c4nc5c(-c6cc(F)cc(CNS(C)(=O)=O)c6)cccc5[nH]4)c3n2)c1 [Compound 493, N-(5-(3-(4-(3-Fluoro-5-(methylsulfonamidomethyl)phenyl)-1H-benzo[d]imidazol-2-yl)-1H-pyrazolo[4,3-b]pyridin-5-yl)pyridin-3-yl)butyramide] | 3930 | 2620 | – | –
3 | c1cncc(-c2ccc3[nH]nc(-c4nc5ccccc5[nH]4)c3n2)c1 [Compound 256, 3-(1H-Benzo[d]imidazol-2-yl)-5-(pyridin-3-yl)-1H-pyrazolo[4,3-b]pyridine] | 8840 | > 10000 | 0 | –
4 | FC1(F)CCN(Cc2cncc(-c3ccc4[nH]nc(-c5nc6c(N7CCCCC7)cccc6[nH]5)c4n3)c2)C1 [Compound 194, 5-(5-((3,3-Difluoropyrrolidin-1-yl)methyl)pyridin-3-yl)-3-(4-(piperidin-1-yl)-1H-benzo[d]imidazol-2-yl)-1H-pyrazolo[4,3-b]pyridine] | > 10000 | 6660 | – | 25.4
5 | Cc1ccncc1-c1ccc2[nH]nc(-c3nc4c(-c5ccsc5)cccc4[nH]3)c2n1 [Compound 285, 5-(4-Methylpyridin-3-yl)-3-(4-(thiophen-3-yl)-1H-benzo[d]imidazol-2-yl)-1H-pyrazolo[4,3-b]pyridine] | 5400 | > 10000 | 0 | –
6 | c1csc(-c2cccc3[nH]c(-c4n[nH]c5ccc(-c6ccncc6)nc45)nc23)c1 [Compound 354, 5-(Pyridin-4-yl)-3-(4-(thiophen-2-yl)-1H-benzo[d]imidazol-2-yl)-1H-pyrazolo[4,3-b]pyridine] | 2800 | > 10000 | 31.2 | –
7 | c1ccc(CNCc2cncc(-c3ccc4[nH]nc(-c5nc6c(-c7ccsc7)cccc6[nH]5)c4n3)c2)cc1 [Compound 304, N-Benzyl-1-(5-(3-(4-(thiophen-3-yl)-1H-benzo[d]imidazol-2-yl)-1H-pyrazolo[4,3-b]pyridin-5-yl)pyridin-3-yl)methanamine] | 3460 | 2200 | – | –
8 | Oc1cncc(-c2ccc3[nH]nc(-c4nc5c(-c6cccc(F)c6)cccc5[nH]4)c3n2)c1 [Compound 517, 5-(3-(4-(3-Fluorophenyl)-1H-benzo[d]imidazol-2-yl)-1H-pyrazolo[4,3-b]pyridin-5-yl)pyridin-3-ol] | 4540 | 1540 | – | –
9 | O=C(Nc1cncc(-c2ccc3[nH]nc(-c4nc5c(-c6cccc(F)c6)cccc5[nH]4)c3n2)c1)C1CC1 [Compound 20, N-(5-(3-(4-(3-Fluorophenyl)-1H-benzo[d]imidazol-2-yl)-1H-pyrazolo[4,3-b]pyridin-5-yl)pyridin-3-yl)cyclopropanecarboxamide] | 4240 | 1200 | – | –
10 | O=C(Nc1cncc(-c2ccc3[nH]nc(-c4nc5c(N6CCCCC6)cccc5[nH]4)c3n2)c1)C1CC1 [Compound 188, N-(5-(3-(4-(Piperidin-1-yl)-1H-benzo[d]imidazol-2-yl)-1H-pyrazolo[4,3-b]pyridin-5-yl)pyridin-3-yl)cyclopropanecarboxamide] | 4540 | > 10000 | 49.2 | –
11 | COc1cncc(-c2ccc3[nH]nc(-c4nc5c(N6CCCCC6)cccc5[nH]4)c3n2)c1 [Compound 612, 5-(5-Methoxypyridin-3-yl)-3-(4-(piperidin-1-yl)-1H-benzo[d]imidazol-2-yl)-1H-pyrazolo[4,3-b]pyridine] | 4050 | > 10000 | 26.9 | –
12 | CCCC(=O)Nc1cncc(-c2ccc3[nH]nc(-c4nc5c(-c6ccsc6)cccc5[nH]4)c3n2)c1 [Compound 297, N-(5-(3-(4-(Thiophen-3-yl)-1H-benzo[d]imidazol-2-yl)-1H-pyrazolo[4,3-b]pyridin-5-yl)pyridin-3-yl)butyramide] | 8920 | 1300 | – | –
13 | CCC(=O)Nc1cncc(-c2ccc3[nH]nc(-c4nc5c(-c6cccc(F)c6)cccc5[nH]4)c3n2)c1 [Compound 1, N-(5-(3-(4-(3-Fluorophenyl)-1H-benzo[d]imidazol-2-yl)-1H-pyrazolo[4,3-b]pyridin-5-yl)pyridin-3-yl)propionamide] | 2740 | 1180 | – | –
14 | c1cncc(-c2cccc3[nH]c(-c4n[nH]c5ccc(-c6cncc(OC7CCCCC7)c6)nc45)nc23)c1 [Compound 559, 5-(5-(Cyclohexyloxy)pyridin-3-yl)-3-(4-(pyridin-3-yl)-1H-benzo[d]imidazol-2-yl)-1H-pyrazolo[4,3-b]pyridine] | 3310 | 2620 | – | –
15 | CCC(=O)Nc1cncc(-c2ccc3[nH]nc(-c4nc5c(-c6cccs6)cccc5[nH]4)c3n2)c1 [Compound 337, N-(5-(3-(4-(Thiophen-2-yl)-1H-benzo[d]imidazol-2-yl)-1H-pyrazolo[4,3-b]pyridin-5-yl)pyridin-3-yl)propionamide] | 3260 | 680 | – | –
16 | Cc1ccc(-c2cccc3[nH]c(-c4n[nH]c5ccc(-c6cncc(NC(=O)C(C)C)c6)nc45)nc23)s1 [Compound 401, N-(5-(3-(4-(5-Methylthiophen-2-yl)-1H-benzo[d]imidazol-2-yl)-1H-pyrazolo [4,3-b]pyridin-5-yl)pyridin-3-yl)isobutyramide] | 3830 | 673 | – | –

More lines, in order of falling EC50 (SW480 colon cancer cells), values ahead:

Row | EC50 (SW480 colon cancer cells) [nM] | SMILES | EC50 [1] [nM] | inhibition at 10 µM [1] [%] | inhibition at 10 µM (SW480 colon cancer cells; 10 μM, read-out: percent inhibition at 10 μM (given for EC50 of >10 μM)) [%]
17 | 2710 | Oc1cncc(-c2ccc3[nH]nc(-c4nc5c(N6CCCCC6)cccc5[nH]4)c3n2)c1 [Compound 613, 5-(3-(4-(Piperidin-1-yl)-1H-benzo[d]imidazol-2-yl)-1H-pyrazolo[4,3-b]pyridin-5-yl)pyridin-3-ol] | 3320 | – | –
18 | 1480 | CCNCc1cncc(-c2ccc3[nH]nc(-c4nc5c(-c6cc(F)cc(NCCN(C)C)c6)cccc5[nH]4)c3n2)c1 [Compound 454, N^1-(3-(2-(5-(5-((Ethylamino)methyl)pyridin-3-yl)-1H-pyrazolo[4,3-b]pyridin-3-yl)-1H-benzo[d]imidazol-4-yl)-5-fluorophenyl)-N^2,N^2-dimethylethane-1,2-diamine] | 2400 | – | –
19 | 1460 | Fc1cccc(-c2cccc3[nH]c(-c4n[nH]c5ccc(C6CCNCC6)nc45)nc23)c1 [Compound 505, 3-(4-(3-Fluorophenyl)-1H-benzo[d]imidazol-2-yl)-5-(piperidin-4-yl)-1H-pyrazolo[4,3-b]pyridine] | 1700 | – | –
20 | 1440 | CN(C)CCNc1cc(F)cc(-c2cccc3[nH]c(-c4n[nH]c5ccc(-c6ccccn6)nc45)nc23)c1 [Compound 476, N^1-(3-Fluoro-5-(2-(5-(pyridin-2-yl)-1H-pyrazolo[4,3-b]pyridin-3-yl)-1H-benzo[d]imidazol-4-yl)phenyl)-N^2,N^2-dimethylethane-1,2diamine] | 1080 | – | –
21 | 1220 | Cc1cn(-c2cccc3[nH]c(-c4n[nH]c5ccc(-c6cncc(NC(=O)CC(C)C)c6)nc45)nc23)cn1 [Compound 198, 3-Methyl-N-(5-(3-(4-(4-methyl-1H-imidazol-1-yl)-1H-benzo[d]imidazol-2-yl)-1H-pyrazolo[4,3-b]pyridin-5-yl)pyridin-3-yl)butanamide] | 1890 | – | –
22 | 1120 | Fc1cccc(-c2cccc3[nH]c(-c4n[nH]c5ccc(-c6cncc(OCCN7CCCC7)c6)nc45)nc23)c1 [Compound 514, 3-(4-(3-Fluorophenyl)-1H-benzo[d]imidazol-2-yl)-5-(5-(2-(pyrrolidin-1-yl)ethoxy)pyridin-3-yl)-1H-pyrazolo[4,3-b]pyridine] | 1060 | – | –
23 | 1040 | CN1CCN(c2cccc3[nH]c(-c4n[nH]c5ccc(-c6cncc(OCc7ccccc7)c6)nc45)nc23)CC1 [Compound 646, 5-(5-(Benzyloxy)pyridin-3-yl)-3-(4-(4-methylpiperazin-1-yl)-1H-benzo[d]imidazol-2-yl)-1H-pyrazolo[4,3-b]pyridine] | 1460 | – | –
24 | 952 | NC1CN(c2cncc(-c3ccc4[nH]nc(-c5nc6c(-c7cccc(F)c7)cccc6[nH]5)c4n3)n2)C1 [Compound 510, 1-(6-(3-(4-(3-Fluorophenyl)-1H-benzo[d]imidazol-2-yl)-1H-pyrazolo[4,3-b]pyridin-5-yl)pyrazin-2-yl)azetidin-3-amine] | 4320 | – | –
25 | 466 | CN(C)Cc1cncc(-c2ccc3[nH]nc(-c4nc5c(-c6cccc(F)c6)cccc5[nH]4)c3n2)c1 [Compound 13, 1-(5-(3-(4-(3-Fluorophenyl)-1H-benzo[d]imidazol-2-yl)-1H-pyrazolo[4,3-b]pyridin-5-yl)pyridin-3-yl)-N,N-dimethylmethanamine] | 616 | – | –
26 | 320 | Cc1ccc(-c2cccc3[nH]c(-c4n[nH]c5ccc(-c6cncc(N)c6)nc45)nc23)s1 [Compound 395, 5-(3-(4-(5-Methylthiophen-2-yl)-1H-benzo[d]imidazol-2-yl)-1H-pyrazolo [4,3-b]pyridin-5-yl)pyridin-3-amine] | 186 | – | –
